This note sets out measurements from patent publication US7741124B2, “Detection procedures for fibrinogen and/or fibrinogen derivatives” (priority 2003, dated 2010).

Common to all, as to type: biochemical
Assay [1] concerns the target T1, fibrinogen in human plasma (Homo sapiens, UniProt P02671+P02675+P02679).
T1 construct: 200 μl of 256% of norm active fibrinogen in P-Pool; from tissue; host or cells: pooled citrated human patient plasma (P-Pool / Fbgen-Pool)
T1 sequence (P02671 20-629 isoform P02671-2 limits assumed): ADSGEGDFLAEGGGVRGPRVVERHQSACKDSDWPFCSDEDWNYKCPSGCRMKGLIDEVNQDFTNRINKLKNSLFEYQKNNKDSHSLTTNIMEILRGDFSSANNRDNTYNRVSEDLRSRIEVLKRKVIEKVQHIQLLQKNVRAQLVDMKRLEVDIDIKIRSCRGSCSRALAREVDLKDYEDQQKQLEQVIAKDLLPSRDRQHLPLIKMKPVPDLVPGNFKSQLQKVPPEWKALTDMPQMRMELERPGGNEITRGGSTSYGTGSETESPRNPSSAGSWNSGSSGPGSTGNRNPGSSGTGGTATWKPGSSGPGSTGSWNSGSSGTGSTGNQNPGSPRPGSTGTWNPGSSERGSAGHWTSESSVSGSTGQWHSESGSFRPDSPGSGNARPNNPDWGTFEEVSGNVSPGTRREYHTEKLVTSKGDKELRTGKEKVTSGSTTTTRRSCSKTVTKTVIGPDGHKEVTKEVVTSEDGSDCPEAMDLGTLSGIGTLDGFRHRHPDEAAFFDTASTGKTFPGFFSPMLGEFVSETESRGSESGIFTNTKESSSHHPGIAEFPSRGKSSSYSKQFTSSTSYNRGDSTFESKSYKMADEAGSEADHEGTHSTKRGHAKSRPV
T1 sequence (P02675 31-491): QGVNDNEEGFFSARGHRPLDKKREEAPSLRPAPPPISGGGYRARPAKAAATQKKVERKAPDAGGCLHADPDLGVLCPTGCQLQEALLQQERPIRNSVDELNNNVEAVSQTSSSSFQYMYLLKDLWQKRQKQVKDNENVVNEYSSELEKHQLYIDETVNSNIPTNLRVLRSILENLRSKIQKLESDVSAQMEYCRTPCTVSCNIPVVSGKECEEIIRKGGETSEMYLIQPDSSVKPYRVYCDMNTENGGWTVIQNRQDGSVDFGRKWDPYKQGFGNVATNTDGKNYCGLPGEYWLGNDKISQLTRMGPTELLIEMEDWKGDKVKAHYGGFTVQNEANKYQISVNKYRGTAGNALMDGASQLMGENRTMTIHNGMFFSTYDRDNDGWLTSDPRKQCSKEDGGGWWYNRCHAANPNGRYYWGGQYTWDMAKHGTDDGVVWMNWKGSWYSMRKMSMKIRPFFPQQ
T1 sequence (P02679 27-437 isoform P02679-2 limits assumed): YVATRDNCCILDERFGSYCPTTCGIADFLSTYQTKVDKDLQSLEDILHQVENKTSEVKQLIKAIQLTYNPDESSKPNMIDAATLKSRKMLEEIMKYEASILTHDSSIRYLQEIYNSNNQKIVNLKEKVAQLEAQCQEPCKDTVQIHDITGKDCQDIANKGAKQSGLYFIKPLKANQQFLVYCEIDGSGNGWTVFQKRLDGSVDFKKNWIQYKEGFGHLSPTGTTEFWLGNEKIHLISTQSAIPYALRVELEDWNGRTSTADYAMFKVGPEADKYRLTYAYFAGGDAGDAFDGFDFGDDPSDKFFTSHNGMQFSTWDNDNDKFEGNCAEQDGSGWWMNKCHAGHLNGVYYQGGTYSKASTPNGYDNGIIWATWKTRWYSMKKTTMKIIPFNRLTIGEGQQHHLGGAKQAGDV
As to the kind of experiment: Inactivation of fibrinogen by vancomycin or chloramine-T (FIFTA read-out). The method, then:
200 μl of 256% of norm active fibrinogen in P-Pool were incubated with 25 μl 0-100 mM vancomycin or 0-100 mM chloramine-T® in aqua dest. for 15 min (37° C.). 50 μl samples of these reaction mixtures were withdrawn and incubated with 100 μl 200 mIU/ml thrombin, 400 μg/ml Polybrene®, 6% BSA-PBS. The results were standardized by simultaneous analysis of 144% of norm active fibrinogen in P-Pool.

Assay [2] relates to β2 fraction (fibrinogen) of plasma. As to the kind of experiment: Electrophoresis of plasma that had been incubated with vancomycin. The method, then:
950 μl P-Pool were incubated with 50 μl 0-200 mM (0-10 mM final conc.) vancomycin for 5 min (RT). Then electrophoreses of the samples and of the solubilized precipitate of 2.10. were performed and the total protein concentrations in the treated samples were determined.

The subject of another assay is t-PA. As to the kind of experiment: Stimulation of t-PA by vancomycin-precipitated plasma, plasma system. The method, then: 25 μl P-Pool were incubated with 25 μl 0-50 mM vancomycin in PBS and 50 μl 1000 IU/ml t-PA in PBS, 0.1% Triton X 100® and 25 μl 0 mM or 15 mM chloramine-T® for 30 min (RT). Then 25 μl 2.7 mM Vai-Leu-Lys-pNA, 1.7 M KCl were added and the resulting plasmin activity was determined by measuring linear absorbance increase/min RT in a microtiterplate reader.

The structures appear in SMILES notation.

What is called IC50 is the concentration that gives 50% inhibition. For `CN[C@H](CC(C)C)C(=O)N[C@H]1C(=O)N[C@@H](CC(N)=O)C(=O)N[C@H]2C(=O)N[C@H]3C(=O)N[C@H](C(=O)N[C@H](C(=O)O)c4cc(O)cc(O)c4-c4cc3ccc4O)[C@H](O)c3ccc(c(Cl)c3)Oc3cc2cc(c3O[C@@H]2O[C@H](CO)[C@@H](O)[C@H](O)[C@H]2O[C@H]2C[C@](C)(N)[C@H](O)[C@H](C)O2)Oc2ccc(cc2Cl)[C@H]1O` [vancomycin], the IC50 in assay [1] is about 1000 µM. Moreover, the β2 fraction in assay [2] (0.29 mM vancomycin) was found to be 10.6%; in assay [2] (0.44 mM vancomycin), 10.4%; in assay [2] (0.66 mM vancomycin), 8.0%; in assay [2] (0.99 mM vancomycin) it was 6.4%; in assay [2] (1.48 mM vancomycin) it was 5.2%; in assay [2] (2.22 mM vancomycin), 5.5%. Besides, the β2 fraction in assay [2] (5 mM vancomycin) and in assay [2] (10 mM vancomycin) was 0% each time. In the assay with t-PA (1 part plasma with 1 part 1.5-5 mM vancomycin, oxidation with 1 part 15 mM chloramine-T), the “stimulation of t-PA” value is “up to 20 fold”. Moreover, the “increase of t-PA activity” value in the assay with t-PA (without oxidation, 2 mM vancomycin, final incubation 158 min (RT)) came to 2.5 fold.
